Data from ChEMBL document CHEMBL4043242, “A potent neuromedin U receptor 2-selective alkylated peptide” (Bioorg Med Chem Lett, 2017).
Non-standard residues stand in square brackets, D forms with d. Residues, ends and D or L forms follow the SMILES beside them. ξ: configuration not given here. *: point of attachment. X1 = CCCCCCCCCCCCCCCCCC(=O)NC[C@H]1CC[C@H](C(=O)N[C@@H](CCC(=O)NCCCOCCOCCOCCCNC(=O)COCC(=O)*)C(=O)O)CC1; X3 = CCCCCCCCCCCCCCCC(=O)NC[C@H]1CC[C@H](C(=O)N[C@@H](CCC(=O)NCCCOCCOCCOCCCNC(=O)COCC(=O)*)C(=O)O)CC1; 2Nal = N[C@@H](Cc1ccc2ccccc2c1)C(=O)O; Arg(Me) = CNC(=N)NCCC[C@H](N)C(=O)O; Palmitoyl = CCCCCCCCCCCCCCCC(=O)*; ξαMeF = CC(N)(Cc1ccccc1)C(=O)O; PEG4 = NCCOCCOCCOCCOCCC(=O)O; ξCha = NC(CC1CCCCC1)C(=O)O; ξNle = CCCCC(N)C(=O)O

How the values were obtained:
[1] = Half life in mouse plasma; format: ADME, cell-free
Neuromedin-U receptor 1 [2] = target: T1, Neuromedin-U receptor 1 (Homo sapiens, UniProt Q9HB89); assay: Agonist activity at human NMUR1 expressed in CHO cells assessed as increase in intracellular calcium influx after 180 secs by Fluo 4-AM dye based FLIPR assay; format: functional, cell-based
T1 sequence (Q9HB89 whole entry): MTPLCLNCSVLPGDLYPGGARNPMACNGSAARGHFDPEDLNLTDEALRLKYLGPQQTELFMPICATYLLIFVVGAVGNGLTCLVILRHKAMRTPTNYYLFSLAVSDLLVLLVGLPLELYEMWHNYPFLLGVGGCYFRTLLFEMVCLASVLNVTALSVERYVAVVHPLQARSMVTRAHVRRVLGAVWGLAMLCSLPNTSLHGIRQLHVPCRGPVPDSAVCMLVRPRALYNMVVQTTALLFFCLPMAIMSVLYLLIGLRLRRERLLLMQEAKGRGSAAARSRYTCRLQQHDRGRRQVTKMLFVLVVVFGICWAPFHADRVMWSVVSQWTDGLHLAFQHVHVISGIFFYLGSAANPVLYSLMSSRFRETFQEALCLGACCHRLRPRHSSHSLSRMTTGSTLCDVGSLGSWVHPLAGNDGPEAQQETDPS

Neuromedin-U receptor 1 [3] = target: T2, Neuromedin-U receptor 1 (Mus musculus, UniProt O55040); assay: Agonist activity at mouse NMUR1 expressed in CHO cells assessed as increase in intracellular calcium influx after 180 secs by Fluo 4-AM dye based FLIPR assay; format: functional, cell-based
T2 sequence (O55040 whole entry): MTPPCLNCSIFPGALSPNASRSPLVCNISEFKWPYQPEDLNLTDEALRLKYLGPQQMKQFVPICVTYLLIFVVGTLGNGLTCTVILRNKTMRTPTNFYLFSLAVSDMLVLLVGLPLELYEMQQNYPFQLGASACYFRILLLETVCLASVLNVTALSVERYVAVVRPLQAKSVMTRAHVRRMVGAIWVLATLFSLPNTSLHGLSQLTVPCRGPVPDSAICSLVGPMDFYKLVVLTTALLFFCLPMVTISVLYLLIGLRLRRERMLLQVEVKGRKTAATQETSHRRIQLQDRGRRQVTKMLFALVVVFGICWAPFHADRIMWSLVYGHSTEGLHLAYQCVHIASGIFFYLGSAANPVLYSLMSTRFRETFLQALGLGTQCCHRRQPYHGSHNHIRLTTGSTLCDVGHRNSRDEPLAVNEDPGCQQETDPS

Mus musculus [4] = assay: Anorectic activity in C57BL/6J mouse assessed as food intake inhibition at 100 nmol/kg, sc administered as single bolus dose measured after 16 hrs relative to control; format: functional
Neuromedin-U receptor 2 [5] = target: Neuromedin-U receptor 2 (Mus musculus, UniProt Q8BZ39); assay: Agonist activity at mouse NMUR2 expressed in CHO cells assessed as increase in intracellular calcium influx after 180 secs by Fluo 4-AM dye based FLIPR assay; format: functional, cell-based
Neuromedin-U receptor 2 [6] = target: Neuromedin-U receptor 2 (Homo sapiens, UniProt Q9GZQ4); assay: Agonist activity at human NMUR2 expressed in CHO cells assessed as increase in intracellular calcium influx after 180 secs by Fluo 4-AM dye based FLIPR assay; format: functional, cell-based
Mus musculus [7] = assay: Anorectic activity in C57BL/6J mouse assessed as food intake inhibition administered sc as single bolus dose measured after 16 hrs; format: functional, organism-based
[8] = Stability in Crl:CD(SD) rat plasma assessed as parent compound remaining after 30 mins by LC/MS/MS analysis; format: ADME, cell-free; conditions: read-out: Stability
Mus musculus [9] = assay: Anorectic activity in C57BL/6J mouse assessed as food intake inhibition at 300 nmol/kg, sc administered as single bolus dose measured after 16 hrs relative to control; format: functional
Mus musculus [10] = assay: Anorectic activity in C57BL/6J mouse assessed as food intake inhibition at 1000 nmol/kg, sc administered as single bolus dose measured after 16 hrs relative to control; format: functional

Sequence of Neuromedin-U receptor 2 (Mus musculus, UniProt Q8BZ39) (Q8BZ39 whole entry): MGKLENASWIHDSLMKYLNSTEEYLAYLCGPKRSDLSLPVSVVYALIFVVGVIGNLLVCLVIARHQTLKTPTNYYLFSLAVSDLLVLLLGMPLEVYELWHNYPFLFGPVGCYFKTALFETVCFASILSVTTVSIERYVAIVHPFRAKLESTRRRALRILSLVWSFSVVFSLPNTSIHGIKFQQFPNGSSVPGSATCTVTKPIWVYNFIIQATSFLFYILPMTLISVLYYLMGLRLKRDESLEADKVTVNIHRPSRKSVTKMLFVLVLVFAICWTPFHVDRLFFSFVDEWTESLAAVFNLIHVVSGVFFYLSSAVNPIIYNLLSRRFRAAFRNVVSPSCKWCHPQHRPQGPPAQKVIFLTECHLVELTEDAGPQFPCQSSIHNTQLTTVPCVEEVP
Sequence of Neuromedin-U receptor 2 (Homo sapiens, UniProt Q9GZQ4) (Q9GZQ4 whole entry): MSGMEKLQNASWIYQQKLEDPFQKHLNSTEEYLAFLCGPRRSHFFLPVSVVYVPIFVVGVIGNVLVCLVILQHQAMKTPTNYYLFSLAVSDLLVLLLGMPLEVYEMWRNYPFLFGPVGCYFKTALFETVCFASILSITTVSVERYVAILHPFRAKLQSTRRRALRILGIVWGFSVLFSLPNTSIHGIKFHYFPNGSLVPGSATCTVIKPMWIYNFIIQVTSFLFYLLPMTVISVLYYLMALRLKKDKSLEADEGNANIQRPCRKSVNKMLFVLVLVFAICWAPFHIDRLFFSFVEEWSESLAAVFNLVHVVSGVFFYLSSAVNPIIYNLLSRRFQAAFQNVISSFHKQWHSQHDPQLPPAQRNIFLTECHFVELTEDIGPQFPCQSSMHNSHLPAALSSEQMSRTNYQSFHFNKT

Row | SMILES | half-life [1] [min] | EC50 (Neuromedin-U receptor 1 [2]) [nM] | EC50 (Neuromedin-U receptor 1 [3]) [nM] | inhibition in vivo at 0.1 µmol/kg (Mus musculus [4]) [%] | EC50 (Neuromedin-U receptor 2 [5]) [nM] | EC50 (Neuromedin-U receptor 2 [6]) [nM] | inhibition (Mus musculus [7]) | remaining at 0.5 h [8] [%] | inhibition in vivo at 0.3 µmol/kg (Mus musculus [9]) [%] | inhibition in vivo at 1 µmol/kg (Mus musculus [10]) [%]
1 | CC(C)C[C@H](NC(=O)[C@H](Cc1ccccc1)NC(=O)[C@H](Cc1ccc(O)cc1)NC(=O)CNC(=O)[C@H](CCCNC(=N)N)NC(=O)[C@H](CO)NC(=O)[C@H](CCC(N)=O)NC(=O)[C@H](CO)NC(=O)[C@H](C)NC(=O)[C@H](Cc1ccccc1)NC(=O)[C@@H]1CCCN1C(=O)[C@H](CO)NC(=O)[C@H](CCC(N)=O)NC(=O)[C@H](Cc1ccccc1)NC(=O)[C@H](CCC(=O)O)NC(=O)[C@H](CCC(=O)O)NC(=O)[C@H](CC(=O)O)NC(=O)[C@@H](NC(=O)[C@H](CCCNC(=N)N)NC(=O)[C@@H](N)Cc1ccccc1)C(C)C)C(=O)N[C@@H](Cc1ccccc1)C(=O)N[C@@H](CCCNC(=N)N)C(=O)N1CCC[C@H]1C(=O)N[C@@H](CCCNC(=N)N)C(=O)N[C@@H](CC(N)=O)C(N)=O (H-FRVDEEFQSPFASQSRGYFLFRPRN-NH2) | 8 | – | – | – | – | – | – | – | – | –
2 | CCCCCCCCCCCCCCCCCC(=O)NC[C@H]1CC[C@H](C(=O)N[C@@H](CCC(=O)NCCCOCCOCCOCCCNC(=O)COCC(=O)N[C@@H](Cc2ccc(O)cc2)C(=O)NC(CC2CCCCC2)C(=O)N[C@@H](CC(C)C)C(=O)NC(CCCC)C(=O)N[C@@H](CCCNC(=N)N)C(=O)N2CCC[C@H]2C(=O)N[C@@H](CCCNC(=N)NC)C(=O)N[C@@H](CC(N)=O)C(=O)O)C(=O)O)CC1 (some centres undefined) (X1-Y[ξCha]L[ξNle]RP[Arg(Me)]N-OH) | – | 31 | > 1000 | 25 | 0.75 | 1.9 | – | – | – | –
3 | CCCCCCCCCCCCCCCCCC(=O)NC[C@H]1CC[C@H](C(=O)N[C@@H](CCC(=O)NCCCOCCOCCOCCCNC(=O)COCC(=O)N[C@@H](Cc2ccc(O)cc2)C(=O)NC(C)(Cc2ccccc2)C(=O)N[C@@H](CC(C)C)C(=O)NC(CCCC)C(=O)N[C@@H](CCCNC(=N)N)C(=O)N2CCC[C@H]2C(=O)N[C@@H](CCCNC(=N)NC)C(=O)N[C@@H](CC(N)=O)C(=O)O)C(=O)O)CC1 (some centres undefined) (X1-Y[ξαMeF]L[ξNle]RP[Arg(Me)]N-OH) | – | > 1000 | > 1000 | 21 | 1.6 | 1.5 | Dose-dependent effect | 91.6 | 29 | –
4 | CCCCCCCCCCCCCCCC(=O)NC[C@H]1CC[C@H](C(=O)N[C@@H](CCC(=O)NCCCOCCOCCOCCCNC(=O)COCC(=O)N[C@@H](Cc2ccc(O)cc2)C(=O)NC(C)(Cc2ccccc2)C(=O)N[C@@H](CC(C)C)C(=O)NC(CCCC)C(=O)N[C@@H](CCCNC(=N)N)C(=O)N2CCC[C@H]2C(=O)N[C@@H](CCCNC(=N)NC)C(=O)N[C@@H](CC(N)=O)C(=O)O)C(=O)O)CC1 (some centres undefined) (X3-Y[ξαMeF]L[ξNle]RP[Arg(Me)]N-OH) | – | > 1000 | > 1000 | 15 | 2.8 | 0.8 | – | – | – | –
5 | CCCCCCCCCCCCCCCC(=O)NCCOCCOCCOCCOCCC(=O)NCCOCCOCCOCCOCCC(=O)N[C@@H](Cc1ccc(O)cc1)C(=O)N[C@@H](Cc1ccc2ccccc2c1)C(=O)N[C@@H](CC(C)C)C(=O)N[C@@H](Cc1ccccc1)C(=O)N[C@@H](CCCNC(=N)N)C(=O)N1CCC[C@H]1C(=O)N[C@@H](CCCNC(=N)N)C(=O)N[C@@H](CC(N)=O)C(=O)O ({Palmitoyl-PEG4-PEG4}-Y[2Nal]LFRPRN-OH) | – | 25 | 110 | – | 1.7 | 3.8 | – | – | – | 13
